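Five concentrations, 48 hours, 96-well plates. Abbreviation: GI50, concentration required for 50% inhibition of growth.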 Calls of active or inactive are those of the source. Rule as the data show it: active = GI50 up to about 1.1 µM and inactive = higher.

Among the test systems are 786-0; A549; ACHN; CAKI-1; DU-145; HCC 2998; HCT-116; Hs-578T; M14; NCI-H522; NCI/ADR-RES; OVCAR-3; PC-3; SK-MEL-2; T47D; TK-10; U-251; UACC-62; UO-31; EKVX.
Common to all, as to experiment: DTP human tumour cell line panel, 48 h

Regarding `CC1(C)S[C@@H]2[C@H](N3C(=O)c4ccccc4C3=O)CN2[C@H]1NC(=O)N[C@@H]1N2C[C@@H](N3C(=O)c4ccccc4C3=O)[C@H]2SC1(C)C`, the GI50 with 786-0 is 54.5 µM (inactive); in the assay with A549, 73.3 µM (inactive); with ACHN, > 100 µM (inactive); in the assay on CAKI-1, > 100 µM (inactive); in the assay with DU-145 it was > 100 µM (inactive); in the assay on HCC 2998 it was > 100 µM (inactive). The GI50 in the assay with HCT-116, in the assay on Hs-578T, in the assay with M14, with NCI-H522, in the assay on NCI/ADR-RES and with OVCAR-3 was > 100 µM (inactive) in each case. Moreover, the GI50 in the assay on PC-3 is > 100 µM (inactive); with SK-MEL-2, > 100 µM (inactive); in the assay on T47D it was > 100 µM (inactive); with TK-10, 77.1 µM (inactive); in the assay on U-251 it was 27 µM (inactive); with UACC-62, > 100 µM (inactive). For the same compound, the GI50 with UO-31 is > 100 µM (inactive).

Regarding `O=C(NCCNCCO)N/N=C/c1ccc([N+](=O)[O-])cc1`, the GI50 in the assay with 786-0, in the assay with A549, in the assay on ACHN, in the assay on CAKI-1, in the assay on DU-145 and in the assay with HCC 2998 was > 100 µM (inactive) throughout. In addition, the GI50 was > 100 µM (inactive) in the assay with HCT-116; 57.1 µM (inactive) in the assay on Hs-578T; > 100 µM (inactive) in the assay with M14; > 100 µM (inactive) with NCI-H522; > 100 µM (inactive) in the assay on NCI/ADR-RES; > 100 µM (inactive) in the assay on OVCAR-3. In addition, the GI50 with PC-3 is > 100 µM (inactive); with SK-MEL-2 it was 49.8 µM (inactive); in the assay on T47D it was > 100 µM (inactive); in the assay with TK-10 it was 90.8 µM (inactive); with U-251, > 100 µM (inactive); in the assay on UACC-62 it was > 100 µM (inactive). In addition, the GI50 with UO-31 is > 100 µM (inactive).

Regarding `COc1ccccc1N1CCN(Cn2c(=O)oc3cccnc32)CC1`, the GI50 with 786-0, with A549, in the assay on ACHN, in the assay on CAKI-1, with DU-145 and with EKVX was > 100 µM (inactive) throughout. Also, the GI50 is > 100 µM (inactive) in the assay with HCC 2998; 56.4 µM (inactive) with HCT-116; > 100 µM (inactive) in the assay on Hs-578T; > 100 µM (inactive) with M14; > 100 µM (inactive) in the assay with NCI-H522; > 100 µM (inactive) in the assay with NCI/ADR-RES. Further, the GI50 in the assay on OVCAR-3 was > 100 µM (inactive); with PC-3, > 100 µM (inactive); with SK-MEL-2, > 100 µM (inactive); in the assay with T47D, > 100 µM (inactive); in the assay on TK-10, > 100 µM (inactive); with U-251, 90.2 µM (inactive). For the same compound, the GI50 with UO-31 was > 100 µM (inactive).

Regarding `COc1cc(/C=C2/C(=O)N(C(=O)c3ccccc3O)N=C2C)cc(OC)c1OC`, the GI50 in the assay with 786-0 is 2.25 µM (inactive); in the assay on A549, 0.439 µM (active); in the assay on ACHN it was 0.92 µM (active); with DU-145 it was 2.44 µM (inactive); in the assay with EKVX, 5.5 µM (inactive); with HCC 2998 it was 11.6 µM (inactive). Besides, the GI50 in the assay with HCT-116 is 0.358 µM (active); in the assay with Hs-578T, 0.822 µM (active); in the assay with M14, 7.38 µM (inactive); with NCI-H522, 3.83 µM (inactive); with NCI/ADR-RES, 4.29 µM (inactive); with OVCAR-3 it was 1.53 µM (inactive). Further, the GI50 with PC-3 was 6.93 µM (inactive); with SK-MEL-2, 1.44 µM (inactive); in the assay on T47D it was 1.12 µM (active); in the assay with TK-10, 9.79 µM (inactive); with U-251, 1.2 µM (inactive); in the assay on UACC-62 it was 0.405 µM (active). Also, the GI50 in the assay with UO-31 was 0.558 µM (active).

`Cc1cc(-c2ccc(Cl)cc2)c(C#N)c(=S)n1C1OC(CO)C(O)C(O)C1O` (centres undefined): the GI50 in the assay with 786-0, with A549, with ACHN, with CAKI-1, in the assay on DU-145 and in the assay on EKVX was > 100 µM (inactive) each time. Further, the GI50 in the assay with HCC 2998, in the assay on HCT-116, in the assay on Hs-578T, in the assay with M14, in the assay with NCI-H522 and in the assay with NCI/ADR-RES was > 100 µM (inactive) throughout. Moreover, the GI50 with OVCAR-3 is > 100 µM (inactive); in the assay with PC-3, > 100 µM (inactive); in the assay with SK-MEL-2 it was > 100 µM (inactive); in the assay on T47D, 99.8 µM (inactive); with TK-10 it was > 100 µM (inactive); with UACC-62 it was > 100 µM (inactive).

Take `COc1ccc2nccc(SCC(=O)O)c2c1`: the GI50 in the assay with 786-0, in the assay on A549, with ACHN, with CAKI-1, with DU-145 and in the assay on EKVX was > 100 µM (inactive) throughout. The GI50 with HCT-116, in the assay on Hs-578T, in the assay on M14, in the assay with NCI-H522, with NCI/ADR-RES and with OVCAR-3 was > 100 µM (inactive) in each case. Further, the GI50 in the assay with PC-3, in the assay on SK-MEL-2, in the assay with T47D, in the assay with TK-10, in the assay with U-251 and in the assay with UACC-62 was > 100 µM (inactive) in each case. For the same compound, the GI50 with UO-31 is > 100 µM (inactive).

With `COC(=O)C1c2cc3c(c(O)c2CCC1(C)O)C(=O)c1c(O)cc2c(c1C3=O)OC1OC2(C)C(O)C(N(C)C)C1O` (centres undefined), the GI50 in the assay on 786-0 was 1.03 µM (active); in the assay on A549 it was 0.186 µM (active); with ACHN, 0.172 µM (active); with CAKI-1, < 0.01 µM (active); in the assay on DU-145, 0.139 µM (active); in the assay with EKVX, 0.146 µM (active). Further, the 50% growth inhibitory concentration (GI50) with HCT-116 was 0.245 µM (active); in the assay with Hs-578T, 0.338 µM (active); in the assay on M14, 1.75 µM (inactive); with NCI-H522, 1.1 µM (active); with NCI/ADR-RES it was 1.61 µM (inactive); in the assay with OVCAR-3, 0.0991 µM (active). Further, the GI50 was 0.474 µM (active) in the assay with PC-3; 4.76 µM (inactive) in the assay with SK-MEL-2; 0.274 µM (active) in the assay with T47D; 0.369 µM (active) with TK-10; 0.436 µM (active) in the assay with U-251; 0.421 µM (active) in the assay with UACC-62. Moreover, the GI50 in the assay with UO-31 was 1.4 µM (inactive).

Regarding `CN1N=C(c2ccncc2)OC1c1ccccc1F` (centres undefined), the GI50 in the assay on 786-0, in the assay with A549, with ACHN, with DU-145, with EKVX and in the assay with HCC 2998 was > 100 µM (inactive) in each case. Also, the GI50 in the assay on HCT-116, in the assay with Hs-578T, with M14, in the assay with NCI-H522, in the assay with NCI/ADR-RES and in the assay with OVCAR-3 was > 100 µM (inactive) throughout. For the same compound, the GI50 in the assay with PC-3 was > 100 µM (inactive); in the assay with SK-MEL-2, > 100 µM (inactive); in the assay with T47D it was 51.8 µM (inactive); in the assay on TK-10, > 100 µM (inactive); in the assay with U-251, > 100 µM (inactive); with UACC-62 it was > 100 µM (inactive). The GI50 in the assay with UO-31 is > 100 µM (inactive).

In the case of `CC1(C)C2CCC(=O)C1C(OCc1ccccc1)C2` (centres undefined), the GI50 in the assay with 786-0 is > 100 µM (inactive); with A549, 21.9 µM (inactive); in the assay with ACHN, > 100 µM (inactive); in the assay on CAKI-1 it was 24.1 µM (inactive); with DU-145, > 100 µM (inactive); with HCC 2998 it was > 100 µM (inactive). Also, the GI50 in the assay with HCT-116, with Hs-578T, in the assay with M14, with NCI-H522, with NCI/ADR-RES and in the assay with OVCAR-3 was > 100 µM (inactive) throughout. Moreover, the GI50 with PC-3, with SK-MEL-2, with T47D, with TK-10, with U-251 and in the assay with UACC-62 was > 100 µM (inactive) each time. Moreover, the GI50 in the assay on UO-31 is > 100 µM (inactive).

Regarding `NC(=S)NS(=O)(=O)c1ccc(F)cc1`, the GI50 with 786-0, in the assay with A549, in the assay with ACHN, in the assay on CAKI-1, in the assay on DU-145 and in the assay on EKVX was > 100 µM (inactive) in each case. For the same compound, the GI50 in the assay on HCC 2998, with HCT-116, in the assay on Hs-578T, in the assay on M14, with NCI-H522 and in the assay on NCI/ADR-RES was > 100 µM (inactive) each time. The GI50 in the assay on OVCAR-3, in the assay on PC-3, in the assay on SK-MEL-2, in the assay on T47D, with TK-10 and with U-251 was > 100 µM (inactive) in each case. Further, in the assay with UACC-62, the GI50 is > 100 µM (inactive).

As usually defined, the GI50 is the concentration at which growth is held to half of that of the control.

(Values after ChEMBL document CHEMBL1201862, “PubChem BioAssay data set” (2004).)
